Our source for the IC50 values is patent US20230002375A1, “HYDROPYRAZINO[1,2-B]ISOQUINOLINE COMPOUNDS FOR THE TREATMENT OF AUTOIMMUNE DISEASE” (Hoffmann-La Roche Inc., priority 2019, published 2023).

In the experiment the target is T1, human TLR7 (Homo sapiens, UniProt Q9NYK1).
T1 sequence (Q9NYK1 27-1049): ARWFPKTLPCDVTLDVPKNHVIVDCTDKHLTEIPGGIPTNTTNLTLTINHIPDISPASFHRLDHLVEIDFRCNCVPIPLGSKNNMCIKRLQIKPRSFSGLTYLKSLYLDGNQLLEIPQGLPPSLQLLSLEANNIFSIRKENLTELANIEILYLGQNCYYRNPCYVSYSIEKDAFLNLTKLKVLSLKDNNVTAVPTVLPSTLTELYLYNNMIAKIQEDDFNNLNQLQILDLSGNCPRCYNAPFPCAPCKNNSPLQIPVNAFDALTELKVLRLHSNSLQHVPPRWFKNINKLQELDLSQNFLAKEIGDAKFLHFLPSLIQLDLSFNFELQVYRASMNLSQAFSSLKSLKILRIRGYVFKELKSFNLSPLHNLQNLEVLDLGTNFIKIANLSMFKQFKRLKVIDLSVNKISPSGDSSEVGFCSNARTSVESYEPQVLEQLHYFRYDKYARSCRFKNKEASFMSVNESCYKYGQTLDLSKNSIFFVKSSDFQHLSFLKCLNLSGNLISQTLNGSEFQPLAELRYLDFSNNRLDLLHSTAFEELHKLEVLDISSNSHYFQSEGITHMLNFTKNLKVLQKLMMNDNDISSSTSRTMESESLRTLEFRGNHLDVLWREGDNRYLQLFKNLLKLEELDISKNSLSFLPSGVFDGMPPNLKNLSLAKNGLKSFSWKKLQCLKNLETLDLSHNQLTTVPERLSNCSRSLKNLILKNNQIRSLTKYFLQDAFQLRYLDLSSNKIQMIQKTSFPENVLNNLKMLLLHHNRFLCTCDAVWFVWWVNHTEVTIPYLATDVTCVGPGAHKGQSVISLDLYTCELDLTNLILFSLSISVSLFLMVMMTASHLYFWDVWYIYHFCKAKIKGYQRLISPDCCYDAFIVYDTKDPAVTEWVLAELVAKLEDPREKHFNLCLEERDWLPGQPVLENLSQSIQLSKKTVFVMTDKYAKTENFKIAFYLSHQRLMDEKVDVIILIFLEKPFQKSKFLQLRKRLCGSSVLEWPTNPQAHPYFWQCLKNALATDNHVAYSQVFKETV
Nature of the experiment: HEK293-Blue-hTLR-7 cells assay (SEAP reporter, R848 stimulation). It is filed as cell-based. The note with it: HEK293-Blue-hTLR7 cells, R848, 20 hrs incubation; read-out: HEK/hTLR7 IC50. On the procedure: The following tests were carried out in order to determine the activity of the compounds of formula (I), (Ia) or (Ib) in HEK293-Blue-hTLR-7/8/9 cells assay.
HEK293-Blue-hTLR-7 Cells Assay:
A stable HEK293-Blue-hTLR-7 cell line was purchased from InvivoGen (Cat.#: hkb-htlr7, San Diego, Calif., USA). These cells were originally designed for studying the stimulation of human TLR7 by monitoring the activation of NF-κB. A SEAP (secreted embryonic alkaline phosphatase) reporter gene was placed under the control of the IFN-β minimal promoter fused to five NF-κB and AP-1-binding sites. The SEAP was induced by activating NF-κB and AP-1 via stimulating HEK-Blue hTLR7 cells with TLR7 ligands. Therefore the reporter expression was declined by TLR7 antagonist under the stimulation of a ligand, such as R848 (Resiquimod), for incubation of 20 hrs. The cell culture supernatant SEAP reporter activity was determined using QUANTI-Blue™ kit (Cat.#: rep-qb1, Invivogen, San Diego, Ca, USA) at a wavelength of 640 nm, a detection medium that turns purple or blue in the presence of alkaline phosphatase.
HEK293-Blue-hTLR7 cells were incubated at a density of 250,000˜450,000 cells/mL in a volume of 170 μL in a 96-well plate in Dulbecco's Modified Eagle's medium (DMEM) containing 4.5 g/L glucose, 50 U/mL penicillin, […], […], 2 mM L-glutamine, 10% (v/v) heat-inactivated fetal bovine serum with addition of 20 μL test compound in a serial dilution in the presence of final DMSO at 1% and 10 μL of 20 uM R848 in above DMEM, perform incubation under 37° C. in a CO2 incubator for 20 hrs. Then 20 μL of the supernatant from each well was incubated with 180 μL Quanti-blue substrate solution at 37° C. for 2 hrs and the absorbance was read at 620-655 nm using a spectrophotometer. The signaling pathway that TLR7 activation leads to downstream NF-κB activation has been widely accepted, and therefore similar reporter assay was modified for evaluating TLR7 antagonist.

On to `C[C@@H]1CN(c2ccc(C#N)c3ncccc23)C[C@@H]2Cc3cc(N4C[C@@H]5CNCCN5C4=O)ccc3CN21` (single isomer, unassigned) [Example 17A], for which the IC50 was 10.3 nM.
Next, `C[C@@H]1CN(c2ccc(C#N)c3ncccc23)C[C@@H]2Cc3cc(N4C[C@H]5CNCCN5C4=O)ccc3CN21` (single isomer, unassigned) [Example 17B]: 10.3 nM; `C[C@@H]1CN(c2ccc(C#N)c3ncccc23)C[C@@H]2Cc3cc(N4CC5NCCOC5C4)ccc3CN21` (stereo in doubt) [Example 10, 5-[(4R,11aS)-9-[(4aS,7aS)-3,4,4a,5,7,7a-hexahydro-2H-pyrrolo[3,4-b][1,4]oxazin-6-yl]-4-methyl-1,3,4,6,11,11a-hexahydropyrazino[1,2-b]isoquinolin-2-yl]quinoline-8-carbonitrile]: 21.8 nM; `C[C@@H]1CN(c2ccc(C#N)c3ncccc23)C[C@@H]2Cc3ccc(N4CCOCC(N)C4)cc3CN21` (stereo partly drawn) [Example 1, 5-[(4R,11aS)-8-(6-amino-1,4-oxazepan-4-yl)-4-methyl-1,3,4,6,11,11a-hexahydropyrazino[1,2-b]isoquinolin-2-yl]quinoline-8-carbonitrile]: 71.6 nM.
Next, `C[C@@H]1CN(c2ccc(C#N)c3ncccc23)C[C@@H]2Cc3ccc(NCCN4CC[C@H](O)C4)cc3CN21` [Example 2, 5-[(4R,11aS)-8-[2-[(3S)-3-hydroxypyrrolidin-1-yl]ethylamino]-4-methyl-1,3,4,6,11,11a-hexahydropyrazino[1,2-b]isoquinolin-2-yl]quinoline-8-carbonitrile]: 53.1 nM; `C[C@@H]1CN(c2ccc(C#N)c3ncccc23)C[C@@H]2Cc3ccc(OCCN(C)C)cc3CN21` [Example 5, 5-[(4R,11aS)-8-[2-(dimethylamino)ethoxy]-4-methyl-1,3,4,6,11,11a-hexahydropyrazino[1,2-b]isoquinolin-2-yl]quinoline-8-carbonitrile]: 38.2 nM.
Regarding `C[C@@H]1CN(c2ccc(C#N)c3ncccc23)C[C@@H]2Cc3cc(N[C@@H]4CNC[C@@H]4F)ccc3CN21` [Example 6, 5-[(4R,11aS)-4-methyl-9-[[(3R,4S)-4-fluoropyrrolidin-3-yl]amino]-1,3,4,6,11,11a-hexahydropyrazino[1,2-b]isoquinolin-2-yl]quinoline-8-carbonitrile], the IC50 was 24.7 nM.
Consider `CO[C@H]1CNC[C@H]1Nc1ccc2c(c1)C[C@H]1CN(c3ccc(C#N)c4ncccc34)C[C@@H](C)N1C2` [Example 7, 5-[(4R,11aS)-9-[[(3R,4S)-4-methoxypyrrolidin-3-yl]amino]-4-methyl-1,3,4,6,11,11a-hexahydropyrazino[1,2-b]isoquinolin-2-yl]quinoline-8-carbonitrile], for which the IC50 came to 27.4 nM.
In the case of `C[C@@H]1CN(c2ccc(C#N)c3ncccc23)C[C@@H]2Cc3cc(N4C[C@@H](F)[C@@H](N)C4)ccc3CN21` [Example 8, 5-[(4R,11aS)-9-[(3S,4R)-3-amino-4-fluoro-pyrrolidin-1-yl]-4-methyl-1,3,4,6,11,11a-hexahydropyrazino[1,2-b]isoquinolin-2-yl]quinoline-8-carbonitrile] it was 35.5 nM.
In the case of `CO[C@H]1CN(c2ccc3c(c2)C[C@H]2CN(c4ccc(C#N)c5ncccc45)C[C@@H](C)N2C3)C[C@H]1N` [Example 9, 5-[(4R,11aS)-9-[(3R,4S)-3-amino-4-methoxy-pyrrolidin-1-yl]-4-methyl-1,3,4,6,11,11a-hexahydropyrazino[1,2-b]isoquinolin-2-yl]quinoline-8-carbonitrile] it was 19.5 nM.
In the case of `C[C@@H]1CN(c2ccc(C#N)c3ncccc23)C[C@@H]2Cc3cc(OCCN(C)C)ccc3CN21` [Example 11, 5-[(4R,11aS)-9-[2-(dimethylamino)ethoxy]-4-methyl-1,3,4,6,11,11a-hexahydropyrazino[1,2-b]isoquinolin-2-yl]quinoline-8-carbonitrile] it was 5.8 nM; in that of `C[C@@H]1CN(c2ccc(C#N)c3ncccc23)C[C@@H]2Cc3cc(OC[C@@H]4CCN4)ccc3CN21` [Example 12, 5-[(4R,11aS)-9-[[(2S)-azetidin-2-yl]methoxy]-4-methyl-1,3,4,6,11,11a-hexahydropyrazino[1,2-b]isoquinolin-2-yl]quinoline-8-carbonitrile], 18.2 nM.
Take `C[C@@H]1CN(c2ccc(C#N)c3ncccc23)C[C@@H]2Cc3cc(N4CCN(C(=O)C(C)(C)N)CC4)ccc3CN21` [Example 13, 5-[(4R,11aS)-9-[4-(2-amino-2-methyl-propanoyl)piperazin-1-yl]-4-methyl-1,3,4,6,11,11a-hexahydropyrazino[1,2-b]isoquinolin-2-yl]quinoline-8-carbonitrile]: the IC50 came out at 18.6 nM.
Next, `C[C@@H]1CN(c2ccc(C#N)c3ncccc23)C[C@@H]2Cc3cc(N4CCN(C(=O)[C@]5(C)CCCN5)CC4)ccc3CN21` [Example 14, 5-[(4R,11aS)-4-methyl-9-[4-[(2S)-2-methylpyrrolidine-2-carbonyl]piperazin-1-yl]-1,3,4,6,11,11a-hexahydropyrazino[1,2-b]isoquinolin-2-yl]quinoline-8-carbonitrile]: 18.6 nM; `C[C@@H]1CN(c2ccc(C#N)c3ncccc23)C[C@@H]2Cc3cc(N4C[C@@H]5C[C@H]4CN5C(=O)C(C)(C)N)ccc3CN21` [Example 15, 5-[(4R,11aS)-9-[(1S,4S)-5-(2-amino-2-methyl-propanoyl)-2,5-diazabicyclo[2.2.1]heptan-2-yl]-4-methyl-1,3,4,6,11,11a-hexahydropyrazino[1,2-b]isoquinolin-2-yl]quinoline-8-carbonitrile]: 2.4 nM.
Next, `C[C@@H]1CN(c2ccc(C#N)c3ncccc23)C[C@@H]2Cc3cc(N4CC(N)CC4=O)ccc3CN21` (stereo partly drawn) [Example 16, 5-[(4R,11aS)-9-(4-amino-2-oxo-pyrrolidin-1-yl)-4-methyl-1,3,4,6,11,11a-hexahydropyrazino[1,2-b]isoquinolin-2-yl]quinoline-8-carbonitrile]: 2.9 nM.
Next, `C[C@@H]1CN(c2ccc(C#N)c3ncccc23)C[C@@H]2Cc3cc(N4CC5CCNCC5C4=O)ccc3CN21` (stereo partly drawn) [Example 18, 5-[(4R,11aS)-4-methyl-9-(3-oxo-3a,4,5,6,7,7a-hexahydro-1H-pyrrolo[3,4-c]pyridin-2-yl)-1,3,4,6,11,11a-hexahydropyrazino[1,2-b]isoquinolin-2-yl]quinoline-8-carbonitrile]: 71.6 nM; `C[C@@H]1CN(c2ccc(C#N)c3ncccc23)C[C@@H]2Cc3cc(N4CC5CNCCC5C4=O)ccc3CN21` (stereo partly drawn) [Example 19, 5-[(4R,11aS)-4-methyl-9-(1-oxo-3a,4,5,6,7,7a-hexahydro-3H-pyrrolo[3,4-c]pyridin-2-yl)-1,3,4,6,11,11a-hexahydropyrazino[1,2-b]isoquinolin-2-yl]quinoline-8-carbonitrile]: 53.1 nM.
